Some results are limits rather than exact numbers.

In test [1] the target is T1, MtbFolB (Mycobacterium tuberculosis, UniProt P9WNC5).
T1 sequence (P9WNC5 1-133): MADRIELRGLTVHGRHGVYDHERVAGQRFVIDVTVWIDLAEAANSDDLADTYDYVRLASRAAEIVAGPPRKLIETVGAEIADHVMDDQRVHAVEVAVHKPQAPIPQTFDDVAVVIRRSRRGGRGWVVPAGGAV
Nature of the test: end-point fluorescence assay. Type of test: biochemical.

The target of test [2] is T1, MtbFolB. Nature of the test: biochemical. As to conditions: read-out: % inhibition.
In test [3] the target is T1, MtbFolB. As to the kind of experiment: biochemical.
Test [4] has as its target T1, MtbFolB. Nature of the test: primary screen, end-point fluorescence assay, 384-well, […] h. Type of test: biochemical. Conditions: 5 µM DHNP, 14 nM enzyme, pH 8.0, 24 °C, 1% DMSO.

The compound `O=C(CCC(=O)c1ccc(-c2ccccc2)cc1)Nc1nncs1` [compound 2, 2] had an IC50 in test [1] of 8 µM.
For `O=C(CCC(=O)c1ccc(-c2ccccc2)cc1)Nc1nncs1` [compound 2], the inhibition at 20 µM in test [2] is 53.2%.
For the compound `Cc1cc(=O)n(-c2ccccc2)n1C(=O)Cc1cccs1` [compound 3, 3], the IC50 in test [3] amounted to 250 ± 30 µM; in test [1], 30.1 µM. The inhibition at 20 µM in test [2] was 52.5%.
In test [3], `Cc1ccc(-n2c(=O)cc(C)n2C(=O)Cc2cccs2)cc1C` [compound 9, 9] had an IC50 of 434 ± 64 µM. Moreover, in test [2], the inhibition at 20 µM came out at 40.8%.
For the compound `O=C(Nc1nc2ccccc2n1Cc1ccc(F)cc1)C1CCC(F)(F)CC1` [compound 14, 14], in test [1], the IC50 turned out to be 17.2 µM.
Take `O=C(Nc1nc2ccccc2n1Cc1ccc(F)cc1)C1CCC(F)(F)CC1` [compound 14]: the inhibition at 20 µM in test [2] turned out to be 36.6%.
Same read-out and setting: in the case of `COc1ccc(CC(=O)n2c(C)cc(=O)n2-c2ccccc2)cc1` [compound 16, 16] it was 35.1%.
On to `O=C1NCN(c2ccccc2)C12CCN(CC(O)COc1ccccc1C1CCCC1)CC2` (stereo not drawn) [compound 17, 17], for which, in test [4], the “% inhibition at 20 μM” value amounted to 32.9%.
Turning to `Cc1cc(=O)n(-c2ccccc2)n1C(=O)C(C)Oc1ccccc1` (stereo not drawn) [compound 20, 20], the IC50 in test [3] stood at 362 ± 82 µM; in test [1] it was 23.1 µM. The inhibition at 20 µM in test [2] stood at 29.9%.
With `Cc1cc(=O)n(-c2ccccc2)n1C(=O)c1ccc(Cl)cc1` [compound 21, 21], in test [1], 34.4 µM corresponded to half-maximal inhibition (IC50). The inhibition at 20 µM in test [2] stood at 29.8%.
In the case of `Cc1ccc(-n2c(=O)cc(C)n2C(=O)C(C)Oc2ccccc2)cc1C` (stereo not drawn) [compound 22, 22], the half-inhibitory concentration (IC50) in test [3] worked out at 172 ± 14 µM; in test [1], 13.5 µM. The inhibition at 20 µM in test [2] turned out to be 29.2%.
Take `CN(C)c1ccc(NS(=O)(=O)c2ccc3ccn(C)c3c2)cc1` [compound 24, 24]: the IC50 in test [1] was above 100 µM.
Same read-out and setting: in the case of `CN(C)c1ccc(NS(=O)(=O)c2cnn(C)c2)cc1` [compound 25, 25] it was 6.8 µM.
On the same count and under the same terms, in the case of `Cc1noc(C)c1S(=O)(=O)Nc1ccc(N(C)C)cc1` [compound 27, 27] it was 9.2 µM; in that of `CN(C)c1ccc(NS(=O)(=O)c2ccc(-c3ccc(C(F)(F)F)cc3)cc2)cc1` [compound 29, 29], above 100 µM; in that of `O=S(=O)(Nc1ccc(N2CCCCC2)cc1)c1ccc(Br)s1` [compound 32, 32], 11.3 µM.
In test [1], `O=S(=O)(Nc1ccc(-n2ccnc2)cc1)c1ccc(Br)s1` [compound 33, 33] showed an IC50 above 100 µM.
On to `CC(=O)Nc1ccc(NS(=O)(=O)c2ccc(Br)s2)cc1` [compound 34, 34], for which the IC50 in test [1] is above 100 µM.
Take `CCc1cc(N2CCC[C@@H](O)C2)ccc1NS(=O)(=O)c1ccc(Br)s1` [compound 35, 35]: the IC50 in test [1] turned out to be 29.1 µM.
In turn, `CC(C)c1ccc(C(C)NS(=O)(=O)c2ccc(Br)s2)cc1` (stereo not drawn) [compound 37, 37] returned an IC50 in test [1] above 100 µM.
On the same count and under the same terms, in the case of `O=S(=O)(NCc1ccc(N2CCC(c3ccc(OC(F)(F)F)cc3)CC2)cc1)c1ccc(Br)s1` [compound 38, 38] it was above 100 µM.
On the same count and under the same terms, with `O=S(=O)(Nc1ccc(N2CCN(S(=O)(=O)c3ccc(Br)s3)CC2)cc1)c1ccc(Br)s1` [compound 39, 39] the figure was 10.6 µM.

For orientation: IC50 means the concentration that inhibits the measured activity by half. A lower IC50 goes with inhibition by little substance. The inhibition is the drop in the measured response relative to a control, in per cent. A word on the % inhibition: it is the share of the control response that was lost under treatment.

Values taken from doi:10.1101/2023.11.21.567704v1 (biorxiv, 2023).
